Results published in ChEMBL document CHEMBL5046241, “The novel therapeutic strategy of vilazodone-donepezil chimeras as potent triple-target ligands for the potential treatment of Alzheimer's disease with comorbid depression” (Eur J Med Chem, 2022).

Assays:
[1] = biological target: Sodium-dependent serotonin transporter (Homo sapiens, UniProt P31645); format: cell-based, HEK293
[2] = biological target: Cholinesterase (Mus musculus, UniProt Q03311)
Description: Inhibition of BuChE in mouse serum using butyrylthiocholine iodide as substrate incubated for 20 mins by Ellman's method

[3] = biological target: T1, Acetylcholinesterase (Mus musculus, UniProt P21836); assay: biochemical
T1 sequence (P21836 whole entry): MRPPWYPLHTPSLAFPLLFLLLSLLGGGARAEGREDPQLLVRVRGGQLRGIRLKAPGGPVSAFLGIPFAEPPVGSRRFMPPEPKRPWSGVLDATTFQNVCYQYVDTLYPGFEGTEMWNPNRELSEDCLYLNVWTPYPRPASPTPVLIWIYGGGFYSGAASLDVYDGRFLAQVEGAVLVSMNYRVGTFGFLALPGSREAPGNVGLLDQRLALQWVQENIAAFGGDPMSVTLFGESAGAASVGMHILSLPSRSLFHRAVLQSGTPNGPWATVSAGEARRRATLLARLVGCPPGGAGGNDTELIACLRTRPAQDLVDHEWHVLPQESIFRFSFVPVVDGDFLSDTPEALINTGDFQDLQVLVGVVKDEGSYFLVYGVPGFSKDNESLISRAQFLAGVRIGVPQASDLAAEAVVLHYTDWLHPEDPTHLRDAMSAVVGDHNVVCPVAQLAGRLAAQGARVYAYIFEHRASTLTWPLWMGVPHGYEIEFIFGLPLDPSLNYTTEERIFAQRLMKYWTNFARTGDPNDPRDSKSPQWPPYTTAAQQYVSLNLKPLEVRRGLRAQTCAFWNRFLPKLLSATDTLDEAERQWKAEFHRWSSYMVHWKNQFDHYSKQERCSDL
Description: Inhibition of AChE in mouse cortical homogenate using acetylthiocholine iodide as substrate incubated for 20 mins by Ellman's method

[4] = biological target: T2, 5-hydroxytryptamine receptor 1A (Homo sapiens, UniProt P08908)
T2 sequence (P08908 whole entry): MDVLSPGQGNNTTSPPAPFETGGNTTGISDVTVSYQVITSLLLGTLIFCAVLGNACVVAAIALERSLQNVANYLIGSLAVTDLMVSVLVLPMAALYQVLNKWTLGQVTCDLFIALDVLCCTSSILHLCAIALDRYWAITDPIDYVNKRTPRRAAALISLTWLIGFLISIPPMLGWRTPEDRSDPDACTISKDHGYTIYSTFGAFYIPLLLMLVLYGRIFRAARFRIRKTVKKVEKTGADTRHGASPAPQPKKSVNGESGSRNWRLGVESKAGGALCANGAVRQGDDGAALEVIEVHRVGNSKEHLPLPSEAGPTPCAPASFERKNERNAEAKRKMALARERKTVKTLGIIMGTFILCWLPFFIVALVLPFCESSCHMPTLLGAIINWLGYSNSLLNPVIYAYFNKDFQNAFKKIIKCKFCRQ
Description: Agonist activity at human 5-HT1A receptor expressed in HEK293 cells incubated for 60 mins by Eu-cAMP tracer based LANCE ultra cAMP assay

[5] = in vitro; conditions: PAMPA
Description: Permeability of compound by PAMPA-BBB assay

[6] = in vitro; conditions: CD-1, mouse, microsomes
[7] = in vitro; conditions: Sprague-Dawley, rat, microsomes
[8] = in vitro; conditions: CD-1, mouse, microsomes; remark: listed apart in the source
[9] = in vitro; conditions: Sprague-Dawley, rat, microsomes; remark: listed apart in the source
[10] = biological target: Sodium-dependent dopamine transporter (Homo sapiens, UniProt Q01959)
Description: Inhibition of dopamine transporter (unknown origin)

[11] = biological target: T1, Acetylcholinesterase; assay: Inhibition of mouse AChE assessed as inhibition constant using acetylthiocholine iodide as substrate measured every 2 mins by lineweaver-burk plot analysis
[12] = biological target: Acetylcholinesterase (Homo sapiens, UniProt P22303); assay: Inhibition of […] using acetylthiocholine iodide as substrate incubated for 20 mins by Ellman's method; design: species or system Erythrocyte
[13] = biological target: 5-hydroxytryptamine receptor 1B (Homo sapiens, UniProt P28222)
Description: Agonist activity at 5-HT1B receptor (unknown origin)

[14] = biological target: Voltage-gated inwardly rectifying potassium channel KCNH2 (Homo sapiens, UniProt Q12809)
Description: Inhibition of hERG expressed in CHO cells at -80 mV holding potential by automated patch clamp method

[15] = biological target: Sodium-dependent noradrenaline transporter (Homo sapiens, UniProt P23975)
Sequence of Sodium-dependent noradrenaline transporter (P23975 whole entry): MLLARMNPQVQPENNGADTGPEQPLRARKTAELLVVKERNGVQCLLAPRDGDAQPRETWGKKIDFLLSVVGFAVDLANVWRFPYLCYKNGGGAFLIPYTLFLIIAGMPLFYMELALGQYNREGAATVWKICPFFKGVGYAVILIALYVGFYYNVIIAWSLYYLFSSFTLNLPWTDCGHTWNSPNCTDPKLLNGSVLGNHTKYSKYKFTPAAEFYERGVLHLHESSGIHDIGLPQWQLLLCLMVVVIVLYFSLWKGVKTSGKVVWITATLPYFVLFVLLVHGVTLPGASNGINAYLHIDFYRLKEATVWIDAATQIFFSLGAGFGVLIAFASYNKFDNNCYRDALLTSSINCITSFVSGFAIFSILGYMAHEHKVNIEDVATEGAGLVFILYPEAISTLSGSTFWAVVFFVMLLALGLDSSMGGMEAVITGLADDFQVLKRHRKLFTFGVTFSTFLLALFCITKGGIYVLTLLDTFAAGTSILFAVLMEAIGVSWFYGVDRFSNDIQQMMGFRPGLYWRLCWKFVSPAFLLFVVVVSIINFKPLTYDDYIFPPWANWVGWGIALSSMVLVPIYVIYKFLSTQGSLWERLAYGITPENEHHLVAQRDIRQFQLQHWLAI
Description: Inhibition of norepinephrine transporter (unknown origin)

Sequence of Cholinesterase (Q03311 whole entry): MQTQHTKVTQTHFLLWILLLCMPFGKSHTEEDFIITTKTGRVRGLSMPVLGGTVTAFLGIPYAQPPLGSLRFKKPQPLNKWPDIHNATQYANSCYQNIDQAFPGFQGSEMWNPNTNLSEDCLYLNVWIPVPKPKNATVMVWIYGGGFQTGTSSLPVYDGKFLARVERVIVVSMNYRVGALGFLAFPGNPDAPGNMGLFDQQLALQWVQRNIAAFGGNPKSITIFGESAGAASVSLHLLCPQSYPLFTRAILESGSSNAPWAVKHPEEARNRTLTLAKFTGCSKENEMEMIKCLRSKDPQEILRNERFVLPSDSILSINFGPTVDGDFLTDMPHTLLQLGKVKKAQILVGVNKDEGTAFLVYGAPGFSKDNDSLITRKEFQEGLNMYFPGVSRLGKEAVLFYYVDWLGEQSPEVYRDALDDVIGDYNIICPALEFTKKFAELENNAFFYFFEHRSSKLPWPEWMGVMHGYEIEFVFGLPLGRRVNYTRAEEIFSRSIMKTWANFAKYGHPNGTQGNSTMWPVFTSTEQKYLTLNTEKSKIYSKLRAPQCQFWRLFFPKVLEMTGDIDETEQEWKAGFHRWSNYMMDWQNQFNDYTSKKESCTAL
Sequence of Sodium-dependent serotonin transporter (P31645 whole entry): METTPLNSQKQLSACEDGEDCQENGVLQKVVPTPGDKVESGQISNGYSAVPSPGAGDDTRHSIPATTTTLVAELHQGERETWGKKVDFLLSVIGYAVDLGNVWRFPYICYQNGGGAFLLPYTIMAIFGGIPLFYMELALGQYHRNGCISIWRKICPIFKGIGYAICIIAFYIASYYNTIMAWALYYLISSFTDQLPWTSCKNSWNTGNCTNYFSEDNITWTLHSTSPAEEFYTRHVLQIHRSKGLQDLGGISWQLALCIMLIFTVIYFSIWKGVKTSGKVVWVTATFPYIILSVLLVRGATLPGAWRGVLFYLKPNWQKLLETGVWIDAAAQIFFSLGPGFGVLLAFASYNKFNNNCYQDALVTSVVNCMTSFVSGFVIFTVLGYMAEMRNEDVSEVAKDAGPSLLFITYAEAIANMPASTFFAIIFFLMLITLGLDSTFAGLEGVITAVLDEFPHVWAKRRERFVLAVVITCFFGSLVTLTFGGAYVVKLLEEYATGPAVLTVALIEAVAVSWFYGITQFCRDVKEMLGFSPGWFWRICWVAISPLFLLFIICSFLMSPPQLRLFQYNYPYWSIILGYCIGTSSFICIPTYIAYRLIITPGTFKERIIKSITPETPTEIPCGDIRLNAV
Sequence of 5-hydroxytryptamine receptor 1B (P28222 whole entry): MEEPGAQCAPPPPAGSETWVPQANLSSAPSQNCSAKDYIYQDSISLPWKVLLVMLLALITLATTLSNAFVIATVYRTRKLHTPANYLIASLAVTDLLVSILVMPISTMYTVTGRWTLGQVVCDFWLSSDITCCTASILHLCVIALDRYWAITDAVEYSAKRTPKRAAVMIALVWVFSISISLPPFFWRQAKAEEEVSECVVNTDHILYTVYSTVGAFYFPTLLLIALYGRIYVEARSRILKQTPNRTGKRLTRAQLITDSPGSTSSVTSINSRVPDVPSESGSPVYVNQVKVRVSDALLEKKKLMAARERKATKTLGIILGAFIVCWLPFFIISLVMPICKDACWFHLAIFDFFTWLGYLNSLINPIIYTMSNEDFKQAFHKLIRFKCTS
Sequence of Voltage-gated inwardly rectifying potassium channel KCNH2 (Q12809 whole entry): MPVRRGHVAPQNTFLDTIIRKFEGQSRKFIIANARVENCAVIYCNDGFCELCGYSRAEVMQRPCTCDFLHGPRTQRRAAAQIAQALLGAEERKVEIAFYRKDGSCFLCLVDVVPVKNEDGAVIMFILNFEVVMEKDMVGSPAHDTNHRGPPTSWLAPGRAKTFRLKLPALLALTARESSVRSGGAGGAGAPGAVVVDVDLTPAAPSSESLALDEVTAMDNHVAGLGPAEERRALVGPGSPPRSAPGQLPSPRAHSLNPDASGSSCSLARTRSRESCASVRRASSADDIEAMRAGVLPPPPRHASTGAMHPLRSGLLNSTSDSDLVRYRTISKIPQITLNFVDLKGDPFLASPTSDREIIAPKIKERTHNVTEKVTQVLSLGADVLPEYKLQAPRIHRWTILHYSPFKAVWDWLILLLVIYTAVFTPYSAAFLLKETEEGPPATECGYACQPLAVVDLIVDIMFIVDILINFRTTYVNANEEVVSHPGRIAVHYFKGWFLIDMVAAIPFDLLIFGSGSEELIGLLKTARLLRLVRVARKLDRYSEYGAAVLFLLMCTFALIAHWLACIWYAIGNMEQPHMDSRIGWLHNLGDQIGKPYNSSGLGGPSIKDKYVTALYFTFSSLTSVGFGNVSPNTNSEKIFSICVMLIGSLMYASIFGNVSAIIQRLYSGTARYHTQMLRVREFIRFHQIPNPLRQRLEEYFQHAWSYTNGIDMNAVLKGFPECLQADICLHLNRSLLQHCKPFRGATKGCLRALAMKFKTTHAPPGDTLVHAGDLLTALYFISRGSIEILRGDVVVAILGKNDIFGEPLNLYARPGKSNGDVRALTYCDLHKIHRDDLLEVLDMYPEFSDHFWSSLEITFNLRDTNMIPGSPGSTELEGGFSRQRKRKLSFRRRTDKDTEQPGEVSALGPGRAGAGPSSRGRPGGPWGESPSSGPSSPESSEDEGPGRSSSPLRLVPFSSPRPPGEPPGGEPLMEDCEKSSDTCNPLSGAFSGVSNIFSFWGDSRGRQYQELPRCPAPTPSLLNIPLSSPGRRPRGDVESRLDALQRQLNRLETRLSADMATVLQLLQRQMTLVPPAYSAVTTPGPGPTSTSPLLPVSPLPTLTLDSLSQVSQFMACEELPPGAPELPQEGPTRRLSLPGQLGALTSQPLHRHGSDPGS
Sequence of Sodium-dependent dopamine transporter (Q01959 whole entry): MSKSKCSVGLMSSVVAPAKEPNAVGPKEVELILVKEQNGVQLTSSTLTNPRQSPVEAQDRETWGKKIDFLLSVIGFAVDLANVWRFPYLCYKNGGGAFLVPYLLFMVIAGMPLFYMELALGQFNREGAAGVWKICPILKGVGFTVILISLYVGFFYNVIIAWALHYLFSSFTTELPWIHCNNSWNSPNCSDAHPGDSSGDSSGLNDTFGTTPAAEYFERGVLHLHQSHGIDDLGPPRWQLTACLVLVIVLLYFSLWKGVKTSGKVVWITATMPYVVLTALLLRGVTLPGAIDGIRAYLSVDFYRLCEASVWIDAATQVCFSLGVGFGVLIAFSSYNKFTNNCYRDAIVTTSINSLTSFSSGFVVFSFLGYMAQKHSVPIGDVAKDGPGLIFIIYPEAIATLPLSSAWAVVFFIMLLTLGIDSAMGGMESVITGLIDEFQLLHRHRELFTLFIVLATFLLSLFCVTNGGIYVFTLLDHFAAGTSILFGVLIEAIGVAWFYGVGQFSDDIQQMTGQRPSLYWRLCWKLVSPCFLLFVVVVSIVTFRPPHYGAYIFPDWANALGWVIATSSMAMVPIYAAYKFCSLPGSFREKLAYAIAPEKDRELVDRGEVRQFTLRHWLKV
Sequence of Acetylcholinesterase (Homo sapiens, UniProt P22303) (P22303 whole entry): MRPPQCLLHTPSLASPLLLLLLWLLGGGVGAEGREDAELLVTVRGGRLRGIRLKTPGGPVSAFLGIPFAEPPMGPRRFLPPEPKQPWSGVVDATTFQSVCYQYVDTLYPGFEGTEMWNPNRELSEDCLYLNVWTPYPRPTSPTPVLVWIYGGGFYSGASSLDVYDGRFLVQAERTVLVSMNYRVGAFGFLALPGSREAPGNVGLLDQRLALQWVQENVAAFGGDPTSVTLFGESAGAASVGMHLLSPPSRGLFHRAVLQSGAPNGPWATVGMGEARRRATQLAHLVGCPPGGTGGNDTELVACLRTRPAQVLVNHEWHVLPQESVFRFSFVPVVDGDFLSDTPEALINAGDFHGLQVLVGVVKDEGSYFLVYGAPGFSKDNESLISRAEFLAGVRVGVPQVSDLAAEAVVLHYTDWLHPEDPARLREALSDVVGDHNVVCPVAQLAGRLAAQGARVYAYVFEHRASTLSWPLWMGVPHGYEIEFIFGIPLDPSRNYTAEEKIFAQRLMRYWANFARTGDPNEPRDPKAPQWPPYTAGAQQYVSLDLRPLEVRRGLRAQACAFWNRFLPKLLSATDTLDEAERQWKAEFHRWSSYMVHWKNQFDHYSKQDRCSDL

Row | Structure (SMILES) | IC50 [1] [µM] | IC50 [2] [µM] | IC50 [3] [µM] | EC50 [4] [µM] | Papp [5] [×10⁻⁶ cm/s] | further results
1 | N#Cc1ccc2[nH]cc(CCCN3CCN(c4ccc5c(c4)CC(CC4CCN(Cc6ccccc6)CC4)C5=O)CC3)c2c1 (stereo unspecified) | 0.0184 | 0.551 | 0.00438 | 0.316 | 3.55 | –
2 | N#Cc1ccc2[nH]cc(CN3CCN(c4ccc(C(=O)CCC5CCN(Cc6ccsc6)CC5)cc4)CC3)c2c1 | 0.0752 | 0.902 | 0.00235 | > 1 | 5.25 | –
3 | N#Cc1ccc2[nH]cc(CCN3CCN(c4ccc5c(c4)CC(CC4CCN(Cc6ccccc6)CC4)C5=O)CC3)c2c1 (stereo unspecified) | 0.00881 | 0.638 | 0.0087 | > 1 | 4.16 | –
4 | N#Cc1ccc2[nH]cc(CCCCN3CCN(c4ccc(C(=O)CCC5CCN(Cc6ccsc6)CC5)cc4)CC3)c2c1 | 0.0201 | 0.883 | 0.00301 | 0.0666 | 4.62 | –
5 | N#Cc1ccc2[nH]cc(CCCCN3CCN(c4ccc(C(=O)CCC5CCN(Cc6cccnc6)CC5)cc4)CC3)c2c1 | 0.0162 | 4.59 | 0.00798 | 0.022 | 4.43 | –
6 | N#Cc1ccc2[nH]cc(CN3CCN(c4ccc(C(=O)CCC5CCN(Cc6cc[nH]c6)CC5)cc4)CC3)c2c1 | 0.0121 | 1.15 | 0.00342 | > 1 | 3.17 | –
7 | COc1cc2c(cc1OC)C(=O)C(CC1CCN(Cc3ccccc3)CC1)C2 (stereo unspecified) [DONEPEZIL] | – | – | – | – | – | half-life at […] [6]: 46 min; half-life at […] [7]: > 145 min; microsomal CLint at […] [8]: 34.8 µL/min/mg; microsomal CLint at […] [9]: < 9.6 µL/min/mg
8 | N#Cc1ccc2[nH]cc(CCCCN3CCN(c4ccc(C(=O)CCC5CCN(Cc6ccccc6)CC5)cc4)CC3)c2c1 | 0.0292 | 2.18 | 0.00229 | 0.0586 | – | IC50 [10]: 1.04 µM; Ki [11]: 0.00116 µM; IC50 [12]: 0.00058 µM; EC50 [13]: > 30 µM; IC50 [14]: > 40 µM
9 | N#Cc1ccc2[nH]cc(CN3CCN(c4ccc(C(=O)CCC5CCN(Cc6ccccc6)CC5)cc4)CC3)c2c1 | 0.0545 | 0.979 | 0.00643 | > 1 | 3.67 | –
10 | C[C@]12CC[C@H]3[C@@H](CCC4=CC(=O)CC[C@@]43C)[C@@H]1CC[C@@H]2O [TESTOSTERONE] | – | – | – | – | – | microsomal CLint at […] [8]: 189 µL/min/mg; microsomal CLint at […] [9]: 597 µL/min/mg
11 | N#Cc1ccc2[nH]cc(CN3CCN(c4ccc5c(c4)CC(CC4CCN(Cc6ccccc6)CC4)C5=O)CC3)c2c1 (stereo unspecified) | 0.0159 | 0.498 | 0.00668 | > 1 | 3.61 | –
12 | N#Cc1ccc2[nH]cc(CCCCN3CCN(c4ccc5oc(C(N)=O)cc5c4)CC3)c2c1 [VILAZODONE] | – | – | 21.3 | – | 10.8 | half-life at […] [6]: 39.8 min; half-life at […] [7]: 43.8 min; microsomal CLint at […] [8]: 30.1 µL/min/mg; IC50 [10]: 0.295 µM; microsomal CLint at […] [9]: 31.6 µL/min/mg; IC50 [15]: 0.158 µM; EC50 [13]: > 30 µM; IC50 [14]: 5.55 µM
13 | N#Cc1ccc2[nH]cc(CCN3CCN(c4ccc(C(=O)CCC5CCN(Cc6cc[nH]c6)CC5)cc4)CC3)c2c1 | 0.00841 | 3.57 | 0.00354 | > 1 | 3.15 | –
14 | N#Cc1ccc2[nH]cc(CCCCN3CCN(c4ccc(C(=O)CCC5CCN(Cc6cc[nH]c6)CC5)cc4)CC3)c2c1 | 0.00825 | 2 | 0.00394 | 0.0222 | 4.77 | –
15 | CN1CCC[C@@H]1Cc1c[nH]c2ccc(CCS(=O)(=O)c3ccccc3)cc12 | – | – | – | – | – | EC50 [13]: 0.0116 µM
16 | N#Cc1ccc2[nH]cc(CCCN3CCN(c4ccc(C(=O)CCC5CCN(Cc6ccccc6)CC5)cc4)CC3)c2c1 | 0.0399 | 1.49 | 0.00218 | 0.0655 | 4.38 | –
17 | N#Cc1ccc2[nH]cc(CCCCN3CCN(c4ccc(C(=O)CCC5CCN(Cc6ccoc6)CC5)cc4)CC3)c2c1 | 0.0357 | 2.73 | 0.00895 | 0.019 | 4.68 | –
